From patent US6355799B1, “Substituted benzene compounds, process for their preparation, and herbicidal and defoliant compositions containing them” (ISK Americas Incorporated, priority 1997, dated 2002)

Experiments:
Format in all cases: in vivo
[1] = test system: large crabgrass (Digitaria sanguinalis, DIGSA); test: Post-emerge test, greenhouse herbicide activity screening; details: rating scale 0-100 (0 no damage, 100 complete death), 14 days after application
Outline: (§1)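 Fourteen days after spraying, crop and weed injury was graded visually from 0, no effect, to 100, every plant dead. Test substances were dissolved in acetone and applied at 15–1000 g ai/ha with a flat-fan nozzle. Application was either pre-emergence, one day after sowing, or post-emergence at the 2–3 leaf stage.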

[2] = test system: green foxtail (Setaria viridis, SETVI); test: as above; details: rating scale 0-100 (0 no damage, 100 complete death), 14 days after application
Outline: as §1

[3] = test system: common ragweed (Ambrosia artemisizfolia L., AMBEL); test: as above; details: rating scale 0-100 (0 no damage, 100 complete death), 14 days after application
Outline: as §1

[4] = test system: ivyleaf morningglory (Ipomoea hederacea, IPOHE); test: as above; details: rating scale 0-100 (0 no damage, 100 complete death), 14 days after application
Outline: as §1

[5] = test system: barnyardgrass (Echinochloa crus-galli, ECHCG); test: as above; details: rating scale 0-100 (0 no damage, 100 complete death), 14 days after application
Outline: as §1

[6] = test system: redroot pigweed (Amaranthus retroflexus, AMARE); test: as above; details: rating scale 0-100 (0 no damage, 100 complete death), 14 days after application
Outline: as §1

[7] = test system: sicklepod (Cassia obtusifolia, CASOB); test: as above; details: rating scale 0-100 (0 no damage, 100 complete death), 14 days after application
Outline: as §1

[8] = test system: lambsquarters (Chenopodium album, CHEAL); test: as above; details: rating scale 0-100 (0 no damage, 100 complete death), 14 days after application
Outline: as §1

[9] = test system: velvetleaf (Abutilon theophrasti, ABUTH); test: as above; details: rating scale 0-100 (0 no damage, 100 complete death), 14 days after application
Outline: as §1

[10] = test system: upland rice (Oryza sp., var. Tebonnet, RICE); test: Pre-emerge test, crop safety; details: rating scale 0-100, 14 days after application
Outline: (§2)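 Sandy loam pots; pre-emerge: sown 1 d pre-spray, surface-watered after, then bottom-watered. Post-emerge: sown 8–21 d before, 2–3 leaf stage, + 0.25% v/v NIS, bottom-watered. Acetone, 187 l/ha track spray, 15–1000 g ai/ha. 0–100 injury score, day 14.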

[11] = test system: field corn (Zea mays L., var. Dekalb 535, CORN); test: Pre-emerge test, crop safety; details: rating scale 0-100, 14 days after application
Outline: as §2

[12] = test system: upland rice (Oryza sp., var. Tebonnet, RICE); test: Post-emerge test, crop safety; details: rating scale 0-100 (0 no damage, 100 complete death), 14 days after application
Outline: (§3)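 Herbicidal damage is scored 0 (none) to 100 (complete plant death) two weeks after a simulated field spray. Rates span 15–1000 g ai/ha, delivered in acetone at 187 l/ha. For post-emergence treatments, plants have 2–3 leaves and the spray carries 0.25% v/v non-ionic surfactant.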

[13] = test system: field corn (Zea mays L., var. Dekalb 535, CORN); test: Post-emerge test, crop safety; details: rating scale 0-100 (0 no damage, 100 complete death), 14 days after application
Outline: as §3

[14] = test system: redroot pigweed (Amaranthus retroflexus, AMARE); test: Pre-emerge test, greenhouse herbicide activity screening; details: rating scale 0-100, 14 days after application
Outline: as §2

[15] = test system: large crabgrass (Digitaria sanguinalis, DIGSA); test: as above; details: rating scale 0-100, 14 days after application
Outline: as §3

[16] = test system: green foxtail (Setaria viridis, SETVI); test: as above; details: rating scale 0-100, 14 days after application
Outline: as §3

[17] = test system: common ragweed (Ambrosia artemisizfolia L., AMBEL); test: as above; details: rating scale 0-100, 14 days after application
Outline: as §3

[18] = test system: ivyleaf morningglory (Ipomoea hederacea, IPOHE); test: as above; details: rating scale 0-100, 14 days after application
Outline: as §3

[19] = test system: barnyardgrass (Echinochloa crus-galli, ECHCG); test: as above; details: rating scale 0-100, 14 days after application
Outline: as §3

[20] = test system: johnsongrass (Sorghum halepense, SORHA); test: as above; details: rating scale 0-100, 14 days after application
Outline: as §3

[21] = test system: sicklepod (Cassia obtusifolia, CASOB); test: as above; details: rating scale 0-100, 14 days after application
Outline: as §3

[22] = test system: lambsquarters (Chenopodium album, CHEAL); test: as above; details: rating scale 0-100, 14 days after application
Outline: as §3

[23] = test system: velvetleaf (Abutilon theophrasti, ABUTH); test: as above; details: rating scale 0-100, 14 days after application
Outline: as §3

## CCCCCCOC(=O)C(Cl)Cc1c(OC)c(Cl)cc(F)c1-n1c(=O)cc(C(F)(F)F)n(C)c1=O (single isomer, unassigned) [14-12]
[1]; Rate 63 g ai/ha
  Post-emerge Herbicidal Activity, phytotoxicity rating DIGSA: 50
[1]; Rate 250 g ai/ha
  Post-emerge Herbicidal Activity, phytotoxicity rating DIGSA: 60
[2]; Rate 63 g ai/ha
  Post-emerge Herbicidal Activity, phytotoxicity rating SETVI: 30
[2]; Rate 250 g ai/ha
  Post-emerge Herbicidal Activity, phytotoxicity rating SETVI: 40
[3]; Rate 63 g ai/ha
  Post-emerge Herbicidal Activity, phytotoxicity rating AMBEL: 80
[3]; Rate 250 g ai/ha
  Post-emerge Herbicidal Activity, phytotoxicity rating AMBEL: 80
[4]; Rate 63 g ai/ha
  Post-emerge Herbicidal Activity, phytotoxicity rating IPOHE: 40
[4]; Rate 250 g ai/ha
  Post-emerge Herbicidal Activity, phytotoxicity rating IPOHE: 70
[5]; Rate 63 g ai/ha
  Post-emerge Herbicidal Activity, phytotoxicity rating ECHCG: 98
[5]; Rate 250 g ai/ha
  Post-emerge Herbicidal Activity, phytotoxicity rating ECHCG: 99
[6]; Rate 63 g ai/ha
  Post-emerge Herbicidal Activity, phytotoxicity rating AMARE: 85
[6]; Rate 250 g ai/ha
  Post-emerge Herbicidal Activity, phytotoxicity rating AMARE: 90
[7]; Rate 63 g ai/ha
  Post-emerge Herbicidal Activity, phytotoxicity rating CASOB: 20
[7]; Rate 250 g ai/ha
  Post-emerge Herbicidal Activity, phytotoxicity rating CASOB: 80
[8]; Rate 63 g ai/ha
  Post-emerge Herbicidal Activity, phytotoxicity rating CHEAL: 90
[8]; Rate 250 g ai/ha
  Post-emerge Herbicidal Activity, phytotoxicity rating CHEAL: 99
[9]; Rate 63 g ai/ha
  Post-emerge Herbicidal Activity, phytotoxicity rating ABUTH: 10
[9]; Rate 250 g ai/ha
  Post-emerge Herbicidal Activity, phytotoxicity rating ABUTH: 85
[10]; 63 g ai/ha
  Pre-emerge phytotoxicity rating, crop damage RICE: 0
[10]; 250 g ai/ha
  Pre-emerge phytotoxicity rating, crop damage RICE: 0
[11]; 63 g ai/ha
  Pre-emerge phytotoxicity rating, crop damage CORN: 0
[11]; 250 g ai/ha
  Pre-emerge phytotoxicity rating, crop damage CORN: 0
[12]; Rate 63 g ai/ha
  Post-emerge phytotoxicity rating RICE (crop damage): 0
[12]; Rate 250 g ai/ha
  Post-emerge phytotoxicity rating RICE (crop damage): 10
[13]; Rate 63 g ai/ha
  Post-emerge phytotoxicity rating CORN (crop damage): 30
[13]; Rate 250 g ai/ha
  Post-emerge phytotoxicity rating CORN (crop damage): 85
[14]; 63 g ai/ha
  Pre-emerge herbicidal activity, phytotoxicity rating AMARE: 60
[14]; 250 g ai/ha
  Pre-emerge herbicidal activity, phytotoxicity rating AMARE: 100
[15]; 63 g ai/ha
  Pre-emerge herbicidal activity, phytotoxicity rating DIGSA: 0
[15]; 250 g ai/ha
  Pre-emerge herbicidal activity, phytotoxicity rating DIGSA: 100
[16]; 63 g ai/ha
  Pre-emerge herbicidal activity, phytotoxicity rating SETVI: 0
[16]; 250 g ai/ha
  Pre-emerge herbicidal activity, phytotoxicity rating SETVI: 0
[17]; 63 g ai/ha
  Pre-emerge herbicidal activity, phytotoxicity rating AMBEL: 0
[17]; 250 g ai/ha
  Pre-emerge herbicidal activity, phytotoxicity rating AMBEL: 0
[18]; 63 g ai/ha
  Pre-emerge herbicidal activity, phytotoxicity rating IPOHE: 0
[18]; 250 g ai/ha
  Pre-emerge herbicidal activity, phytotoxicity rating IPOHE: 0
[19]; 63 g ai/ha
  Pre-emerge herbicidal activity, phytotoxicity rating ECHCG: 0
[19]; 250 g ai/ha
  Pre-emerge herbicidal activity, phytotoxicity rating ECHCG: 0
[20]; 63 g ai/ha
  Pre-emerge herbicidal activity, phytotoxicity rating SORHA: 0
[20]; 250 g ai/ha
  Pre-emerge herbicidal activity, phytotoxicity rating SORHA: 0
[21]; 63 g ai/ha
  Pre-emerge herbicidal activity, phytotoxicity rating CASOB: 0
[21]; 250 g ai/ha
  Pre-emerge herbicidal activity, phytotoxicity rating CASOB: 0
[22]; 63 g ai/ha
  Pre-emerge herbicidal activity, phytotoxicity rating CHEAL: 50
[22]; 250 g ai/ha
  Pre-emerge herbicidal activity, phytotoxicity rating CHEAL: 60
[23]; 63 g ai/ha
  Pre-emerge herbicidal activity, phytotoxicity rating ABUTH: 0
[23]; 250 g ai/ha
  Pre-emerge herbicidal activity, phytotoxicity rating ABUTH: 20

## CCCCOC(=O)C(Cl)Cc1c(OC)c(Cl)cc(F)c1-n1c(=O)cc(C(F)(F)F)n(C)c1=O (single isomer, unassigned) [14-9]
[1]; Rate 63 g ai/ha
  Post-emerge Herbicidal Activity, phytotoxicity rating DIGSA: 75
[1]; Rate 250 g ai/ha
  Post-emerge Herbicidal Activity, phytotoxicity rating DIGSA: 75
[2]; Rate 63 g ai/ha
  Post-emerge Herbicidal Activity, phytotoxicity rating SETVI: 30
[2]; Rate 250 g ai/ha
  Post-emerge Herbicidal Activity, phytotoxicity rating SETVI: 60
[3]; Rate 63 g ai/ha
  Post-emerge Herbicidal Activity, phytotoxicity rating AMBEL: 10
[3]; Rate 250 g ai/ha
  Post-emerge Herbicidal Activity, phytotoxicity rating AMBEL: 70
[4]; Rate 63 g ai/ha
  Post-emerge Herbicidal Activity, phytotoxicity rating IPOHE: 0
[4]; Rate 250 g ai/ha
  Post-emerge Herbicidal Activity, phytotoxicity rating IPOHE: 80
[5]; Rate 63 g ai/ha
  Post-emerge Herbicidal Activity, phytotoxicity rating ECHCG: 98
[5]; Rate 250 g ai/ha
  Post-emerge Herbicidal Activity, phytotoxicity rating ECHCG: 100
[6]; Rate 63 g ai/ha
  Post-emerge Herbicidal Activity, phytotoxicity rating AMARE: 90
[6]; Rate 250 g ai/ha
  Post-emerge Herbicidal Activity, phytotoxicity rating AMARE: 99
[7]; Rate 63 g ai/ha
  Post-emerge Herbicidal Activity, phytotoxicity rating CASOB: 0
[7]; Rate 250 g ai/ha
  Post-emerge Herbicidal Activity, phytotoxicity rating CASOB: 0
[8]; Rate 63 g ai/ha
  Post-emerge Herbicidal Activity, phytotoxicity rating CHEAL: 60
[8]; Rate 250 g ai/ha
  Post-emerge Herbicidal Activity, phytotoxicity rating CHEAL: 99
[9]; Rate 63 g ai/ha
  Post-emerge Herbicidal Activity, phytotoxicity rating ABUTH: 70
[9]; Rate 250 g ai/ha
  Post-emerge Herbicidal Activity, phytotoxicity rating ABUTH: 100
[10]; 63 g ai/ha
  Pre-emerge phytotoxicity rating, crop damage RICE: 0
[10]; 250 g ai/ha
  Pre-emerge phytotoxicity rating, crop damage RICE: 5
[11]; 63 g ai/ha
  Pre-emerge phytotoxicity rating, crop damage CORN: 0
[11]; 250 g ai/ha
  Pre-emerge phytotoxicity rating, crop damage CORN: 75
[12]; Rate 63 g ai/ha
  Post-emerge phytotoxicity rating RICE (crop damage): 5
[12]; Rate 250 g ai/ha
  Post-emerge phytotoxicity rating RICE (crop damage): 20
[13]; Rate 63 g ai/ha
  Post-emerge phytotoxicity rating CORN (crop damage): 70
[13]; Rate 250 g ai/ha
  Post-emerge phytotoxicity rating CORN (crop damage): 99
[14]; 63 g ai/ha
  Pre-emerge herbicidal activity, phytotoxicity rating AMARE: 80
[14]; 250 g ai/ha
  Pre-emerge herbicidal activity, phytotoxicity rating AMARE: 100
[15]; 63 g ai/ha
  Pre-emerge herbicidal activity, phytotoxicity rating DIGSA: 90
[15]; 250 g ai/ha
  Pre-emerge herbicidal activity, phytotoxicity rating DIGSA: 100
[16]; 63 g ai/ha
  Pre-emerge herbicidal activity, phytotoxicity rating SETVI: 0
[16]; 250 g ai/ha
  Pre-emerge herbicidal activity, phytotoxicity rating SETVI: 20
[17]; 63 g ai/ha
  Pre-emerge herbicidal activity, phytotoxicity rating AMBEL: 0
[17]; 250 g ai/ha
  Pre-emerge herbicidal activity, phytotoxicity rating AMBEL: 0
[18]; 63 g ai/ha
  Pre-emerge herbicidal activity, phytotoxicity rating IPOHE: 0
[18]; 250 g ai/ha
  Pre-emerge herbicidal activity, phytotoxicity rating IPOHE: 0
[19]; 63 g ai/ha
  Pre-emerge herbicidal activity, phytotoxicity rating ECHCG: 0
[19]; 250 g ai/ha
  Pre-emerge herbicidal activity, phytotoxicity rating ECHCG: 70
[20]; 63 g ai/ha
  Pre-emerge herbicidal activity, phytotoxicity rating SORHA: 0
[20]; 250 g ai/ha
  Pre-emerge herbicidal activity, phytotoxicity rating SORHA: 30
[21]; 63 g ai/ha
  Pre-emerge herbicidal activity, phytotoxicity rating CASOB: 0
[21]; 250 g ai/ha
  Pre-emerge herbicidal activity, phytotoxicity rating CASOB: 0
[22]; 63 g ai/ha
  Pre-emerge herbicidal activity, phytotoxicity rating CHEAL: 60
[22]; 250 g ai/ha
  Pre-emerge herbicidal activity, phytotoxicity rating CHEAL: 90
[23]; 63 g ai/ha
  Pre-emerge herbicidal activity, phytotoxicity rating ABUTH: 0
[23]; 250 g ai/ha
  Pre-emerge herbicidal activity, phytotoxicity rating ABUTH: 90
